Laboratory results taken from patent US8623899B2, “Bis-benzimidazole derivatives as hepatitis C virus inhibitors” (Janssen Research & Development Ireland, priority 2009, dated 2014).

These molecules were tested on HCV type 1b replicon in Huh-7 luc/neo (Huh-Luc) cells (assay: HCV replicon assay (Huh-Luc, luciferase readout)). Conditions: Hepatitis C virus, Huh-7, 72 h, luciferase activity, incubation of three days, read-out: HCV-REP-HUH7LUC_EC50.
Format: cell-based
Description: The compounds of formula (I) were examined for inhibitory activity in the HCV replicon. This cellular assay is based on a bicistronic expression construct, as described by Lohmann et al. (1999) Science vol. 285 pp. 110-113 with modifications described by Krieger et al. (2001) Journal of Virology 75: 4614-4624, in a multi-target screening strategy.
In essence, the method was as follows:
The assay utilized the stably transfected cell line Huh-7 luc/neo (hereafter referred to as Huh-Luc). This cell line harbors an RNA encoding a bicistronic expression construct comprising the wild type NS3-NS5B regions of HCV type 1b translated from an Internal Ribosome Entry Site (IRES) from encephalomyocarditis virus (EMCV), preceded by a reporter portion (FfL-luciferase), and a selectable marker portion (neo^R, neomycine phosphotransferase). The construct is flanked by 5′ and 3′ NTRs (non-translated regions) from HCV type 1b. Continued culture of the replicon cells in the presence of G418 (neo^R) is dependent on the replication of the HCV RNA. The stably transfected replicon cells that express HCV RNA, which replicates autonomously and to high levels, encoding inter alia luciferase, were used for screening the antiviral compounds.
The replicon cells were plated in 384 well plates in the presence of the test and control compounds which were added in various concentrations. Following an incubation of three days, HCV replication was measured by assaying luciferase activity (using standard luciferase assay substrates and reagents and a Perkin Elmer ViewLux™ ultraHTS microplate imager). Replicon cells in the control cultures have high luciferase expression in the absence of any inhibitor. The inhibitory activity of the compound on luciferase activity was monitored on the Huh-Luc cells, enabling a dose-response curve for each test compound. EC50 values were then calculated, which represent the amount of compound required to decrease the level of detected luciferase activity by 50%, or more specifically, to reduce the ability of the genetically linked HCV replicon RNA to replicate.

COC(=O)N[C@H](C(=O)N1CCC[C@H]1c1nc2ccc(-c3ccc(-c4ccc5nc([C@@H]6CCCN6C(=O)[C@@H](NC(=O)OC)C(C)(C)C)[nH]c5c4)cc3)cc2[nH]1)C(C)(C)C [Compound 37] and COC(=O)N[C@@H](CC(C)C)C(=O)N1CCC[C@H]1c1nc2ccc(-c3ccc(-c4ccc5nc([C@@H]6CCCN6C(=O)[C@H](CC(C)C)NC(=O)OC)[nH]c5c4)cc3)cc2[nH]1 [Compound 56] are within 1.5-fold of each other in EC50: 0.01 nM for the first, 0.012 nM for the second.

First: CC(C)(C)OC(=O)N[C@@H](C(=O)N1CCC[C@H]1c1nc2ccc(-c3ccc(-c4ccc5nc([C@@H]6CCCN6C(=O)[C@H](NC(=O)OC(C)(C)C)c6ccccc6)[nH]c5c4)cc3)cc2[nH]1)c1ccccc1 [Compound 38]
Second: COC(=O)N[C@@H](C(=O)N1CCCC1c1nc2ccc(-c3ccc(-c4ccc5nc([C@@H]6CCCN6C(=O)[C@H](NC(=O)OC)c6ccccc6)[nH]c5c4)cc3)cc2[nH]1)c1ccccc1 (stereo partly drawn) [Compound 39]
The EC50 of the first is 2.1-fold higher: 0.014 nM for the first, 0.0067 nM for the second. The second is the more potent here.

COC(=O)N[C@H](C(=O)N1CCC[C@H]1c1nc2cc(-c3ccc(-c4ccc5nc([C@@H]6CCCN6C(=O)[C@@H](NC(=O)OC)C6CC6)[nH]c5c4)cc3)ccc2[nH]1)C1CC1 [Compound 40] and COCC[C@H](NC(=O)OC)C(=O)N1CCC[C@H]1c1nc2ccc(-c3ccc(-c4ccc5nc([C@@H]6CCCN6C(=O)[C@H](CCOC)NC(=O)OC)[nH]c5c4)cc3)cc2[nH]1 [Compound 51] are within 1.5-fold of each other in EC50: 0.014 nM for the first, 0.012 nM for the second.

Going from CCOC(=O)N[C@H](C(=O)N1CCC[C@H]1c1nc2ccc(-c3ccc(-c4ccc5nc([C@@H]6CCCN6C(=O)[C@@H](NC(=O)OCC)C(C)C)[nH]c5c4)cc3)cc2[nH]1)C(C)C [Compound 41] to CCC(=O)N[C@H](C(=O)N1CCC[C@H]1c1nc2ccc(-c3ccc(-c4ccc5nc([C@@H]6CCCN6C(=O)[C@@H](NC(=O)CC)C(C)C)[nH]c5c4)cc3)cc2[nH]1)C(C)C [Compound 53], the EC50 falls from 17 nM to 4 nM (4.2-fold). The second is the more potent here.

CCN(C1CC1)[C@@H](C(=O)N1CCC[C@H]1c1nc2ccc(-c3ccc(-c4ccc5nc([C@@H]6CCCN6C(=O)[C@@H](c6ccccc6)N(CC)C6CC6)[nH]c5c4)cc3)cc2[nH]1)c1ccccc1 [Compound 42] and O=C([C@@H](c1ccccc1)N1CCCC1)N1CCC[C@H]1c1nc2ccc(-c3ccc(-c4ccc5nc([C@@H]6CCCN6C(=O)[C@@H](c6ccccc6)N6CCCC6)[nH]c5c4)cc3)cc2[nH]1 [Compound 45] are within 1.5-fold of each other in EC50: 0.063 nM for the first, 0.051 nM for the second.

Compared with O=C([C@@H](c1ccccc1)N1CCOCC1)N1CCC[C@H]1c1nc2ccc(-c3ccc(-c4ccc5nc([C@@H]6CCCN6C(=O)[C@@H](c6ccccc6)N6CCOCC6)[nH]c5c4)cc3)cc2[nH]1 [Compound 46], O=C([C@H](O)c1ccccc1Cl)N1CCC[C@H]1c1nc2ccc(-c3ccc(-c4ccc5nc([C@@H]6CCCN6C(=O)[C@H](O)c6ccccc6Cl)[nH]c5c4)cc3)cc2[nH]1 [Compound 48] is 2-fold lower in EC50: 0.022 nM for the first, 0.011 nM for the second. The second is the more potent here.

Going from O=C([C@H](O)c1cccc(Cl)c1)N1CCC[C@H]1c1nc2ccc(-c3ccc(-c4ccc5nc([C@@H]6CCCN6C(=O)[C@H](O)c6cccc(Cl)c6)[nH]c5c4)cc3)cc2[nH]1 [Compound 49] to CC(C)OC(=O)N[C@H](C(=O)N1CCC[C@H]1c1nc2ccc(-c3ccc(-c4ccc5nc([C@@H]6CCCN6C(=O)[C@@H](NC(=O)OC(C)C)C(C)C)[nH]c5c4)cc3)cc2[nH]1)C(C)C [Compound 52], the EC50 rises from 0.027 nM to greater than 98 nM. The first is the more potent here.

CC(C)[C@@H](C(=O)N1CCC[C@H]1c1nc2ccc(-c3ccc(-c4ccc5nc([C@@H]6CCCN6C(=O)[C@H](C(C)C)N6CCCNC6=O)[nH]c5c4)cc3)cc2[nH]1)N1CCCNC1=O [Compound 54] was tested, and the EC50 was 0.065 nM.
